Where two headings read alike, the source gives them in different places.
Experiments:
[1] = biological target: T1, pSTAT1 (Tyr-701) (Homo sapiens, UniProt P42224); assay: Luminex bead-based assay, G-CSF-induced pSTAT1 in Kasumi-1 cells; format: cell-based
T1 construct: endogenous in cells; host or cells: Kasumi-1
T1 sequence (P42224 1-750): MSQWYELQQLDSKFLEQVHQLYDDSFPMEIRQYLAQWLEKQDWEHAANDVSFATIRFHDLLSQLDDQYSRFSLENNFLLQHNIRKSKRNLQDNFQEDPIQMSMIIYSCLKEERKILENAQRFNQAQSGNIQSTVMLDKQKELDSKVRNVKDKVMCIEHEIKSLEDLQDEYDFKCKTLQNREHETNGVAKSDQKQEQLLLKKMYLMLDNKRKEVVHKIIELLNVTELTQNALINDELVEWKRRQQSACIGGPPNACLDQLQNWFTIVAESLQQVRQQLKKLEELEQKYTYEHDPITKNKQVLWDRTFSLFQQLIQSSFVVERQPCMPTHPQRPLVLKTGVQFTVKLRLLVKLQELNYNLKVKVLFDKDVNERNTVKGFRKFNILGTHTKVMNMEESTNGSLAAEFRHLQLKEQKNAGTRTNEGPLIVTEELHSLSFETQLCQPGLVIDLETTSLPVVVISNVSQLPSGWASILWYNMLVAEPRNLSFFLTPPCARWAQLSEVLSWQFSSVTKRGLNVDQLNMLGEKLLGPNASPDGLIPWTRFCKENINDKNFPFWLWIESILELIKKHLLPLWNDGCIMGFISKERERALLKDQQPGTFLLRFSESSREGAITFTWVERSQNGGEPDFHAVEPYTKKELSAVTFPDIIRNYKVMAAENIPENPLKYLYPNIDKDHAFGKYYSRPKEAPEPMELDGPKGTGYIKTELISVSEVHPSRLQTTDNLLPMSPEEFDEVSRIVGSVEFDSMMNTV
Protocol: The equilibrium binding levels obtained ± compound were normalized (resonance obtained in the presence of compound ÷ the resonance obtained in the absence of compound × 100) and plotted against Log [nM] […] B. Inhibition of ligand-stimulated STAT phosphorylation, measured by phosphoflow. Serum-starved (1 hour) Kasumi-1 cells, pre-incubated with compound/DMSO (1 hour), were treated with G-CSF (10 ng/ml, 15 min, left two panels) or IFN-γ (10ng/ml, 15 min, right panel). Cells were permeabilized and stained with Alexa647-pSTAT3, and PE-pSTAT1 antibodies and analyzed on BD LSR2. FCS files were uploaded to Cytobank for pSTAT3 and pSTAT1 quantitation. Histograms depicting pSTAT3 and pSTAT1 levels are shown. C. Mean fluorescence (pSTAT3/1) levels were plotted as function the Log [M] compound, and IC50 calculated using GraphPad. […] D. Inhibition of ligand-stimulated STAT phosphorylation, measured by Luminex. Serum-starved (1 hour) Kasumi-1 cells, pre-incubated with compound/DMSO (0/0.1/0.3/1/3/10/100 μM, 1 hour), were treated with G-CSF (10 ng/ml, 15′). Total protein extracts of cells were assayed for pSTAT3, pSTAT1, and GAPDH levels by Luminex. […] These values were plotted as a function of Log [M] compound, and IC50 values calculated using GraphPad. […]
for analysis as described below. were determined by plotting % maximum response as a 3-D pharmacophore generation function of log concentration of compound and fitting the Each molecular chemical feature, including experimental points to a competitive binding model using hydrogen bond donor, hydrogen bond acceptor, positive a four parameter logistic equation: R = Rhigh − (Rhigh − R low)/ (1 + conc/A1)^A2, where R = percent response at and negative ionizable group, and hydrophobic region, inhibitor concentration, R = percent response with no was generated using the LigandScout application compound, R= percent response at highest compound high framework and projected into 3-D space. concentration, A2 = fitting parameter (slope) and A1 = low Feature-pairing IC50 (BIAevaluation Software version 4.1). […]

[2] = tested on: UM-SCC-17B cells; assay: Anchorage dependent growth (MTT); format: cell-based; settings: Homo sapiens, 48 hrs
Protocol: GAPDH-normalized pSTAT3 or pSTAT1 values were divided by that for untreated cells and expressed in percentage. These values were plotted as a function of Log [M] compound, and IC50 values calculated using GraphPad. […] Viable cells quantitated using MTT. Relative % viability was measured by (viability after any treatment ÷ viability of untreated cells × 100) and plotted as a function of Log [M] […] C. […] Representative curves are shown.
Cells were cultured in triplicates in complete DMEM ± drug, in ultra-low attachment 96 well plates for 72 hrs or cell-culture treated plates for 48 hrs and viable cells were quantitated using MTT. Optical density (OD) was measured at 590 nm using a 96-well multi-scanner (EL-800 universal microplate reader, BioTek Inc, VT, USA). Relative % viability (viability after any treatment ÷ viability of untreated cells × 100) was plotted along Y-axis. At least 2 replicates experiments were performed and were used for IC50 calculation using GraphPad software.

[3] = Log P; format: physicochemical
[4] = GLP-compliant safety study in dogs; settings: 28 days, data not shown
[5] = biological target: T2, pSTAT1 (Homo sapiens, UniProt P42224); assay: Constitutive pSTAT1 in HNSCC cell lines (Luminex); format: cell-based; parameters: endogenous in cells; host or cells: UM-SCC-17B, SCC-61, HN30, SCC-35
T2 sequence (P42224 1-750): T1 sequence (P42224 1-750)

COc1ccc(S(=O)(=O)Nc2cc(-c3c(O)ccc4ccccc34)c(O)c3ccccc23)cc1 [Compound C188-9]
IC50 ([1]; Figure 2D, Kasumi-1, G-CSF, read-out: Luminex pSTAT1 (Tyr-701) IC50, representative experiment): 3 µM
IC50 ([1]; Kasumi-1, mean, n ≥ 2, read-out: G-CSF Induced Phosphorylation (Luminex) pSTAT1 IC50): 4.1 ± 3.3 µM
IC50 ([2]; mean, read-out: Anchorage dependent growth (MTT) IC50): 3.2 ± 0.6 µM
IC50 ([2]; Figure 4B, read-out: Anchorage Dependent growth IC50, representative experiment): 2.7 µM
logP [3]: 5.2
Dose with no clinical, laboratory, or pathological abnormalities [4]: ≤ 100 mg/kg/d
IC50 ([5]; HN30, 36 hrs): 5 ± 6 µM
IC50 ([5]; SCC-61, 36 hrs): 28.5 ± 0.9 µM
IC50 ([5]; UM-SCC-17B): 19.1 ± 15.5 µM

— paper PMC5041982, “Small-molecule inhibition of STAT3 in radioresistant head and neck squamous cell carcinoma” (Oncotarget, 2016)
